The supplement of paper PMC9663587

Experiments:
Experiment in all cases: area over the GR curve, 72 h; higher = more effect;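 further: Dye Drop or Deep Dye Drop imaging of viable cells in 384-well plates (Hoechst nuclei, LIVE/DEAD dye), nine half-log doses, GR normalized to DMSO controls and time-zero plates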
SUM229PE = system: SUM229PE
CAMA1 = system: CAMA1
PDX1328 = system: PDX1328
BT20 = system: BT20
CAL120 = system: CAL120
SUM149 = system: SUM149
ZR7530 = system: ZR7530
SUM185PE = system: SUM185PE
UACC893 = system: UACC893
SUM159 = system: SUM159
184A1 = system: 184A1
MCF7 = system: MCF7

SMILES	area over the GR curve (SUM229PE) [GR]	area over the GR curve (CAMA1) [GR]	area over the GR curve (PDX1328) [GR]	area over the GR curve (BT20) [GR]	area over the GR curve (CAL120) [GR]	area over the GR curve (SUM149) [GR]	area over the GR curve (ZR7530) [GR]	area over the GR curve (SUM185PE) [GR]	area over the GR curve (UACC893) [GR]	area over the GR curve (SUM159) [GR]	area over the GR curve (184A1) [GR]	area over the GR curve (MCF7) [GR]
Cc1nc(Nc2ncc(C(=O)Nc3c(C)cccc3Cl)s2)cc(N2CCN(CCO)CC2)n1 [Dasatinib] (max 10 µM)	0.529	0.152	0.819	0.329	0.519	0.52	0.426	0.455	-0.149	0.0885	0.264	0.483
CO[C@@H](C)Cn1c(=O)n(C)c2cnc3ccc(-c4cncc(C(C)(C)O)c4)cc3c21 (max 10 µM)	0.409	0.972	0.72	0.768	0.696	0.286	0.726	0.679	0.992	0.727	0.761	0.834
COc1cccc2c1C(=O)c1c(O)c3c(c(O)c1C2=O)C[C@@](O)(C(=O)CO)C[C@@H]3O[C@H]1C[C@H](N)[C@H](O)[C@H](C)O1 [Doxorubicin] (max 3.162 µM)	0.453	0.843	0.637	0.828	0.697	0.754	0.552	0.0881	0.611	0.624	0.706	0.636
CC(=O)c1c(C)c2cnc(Nc3ccc(N4CCNCC4)cn3)nc2n(C2CCCC2)c1=O (max 3.162 µM)	0.223	0.353	0.252	0.39	0.142	0.19	0.284	0.0458	0.436	0.186	0.375	0.346
Cc1nn(C)c(COc2ccc(N3CCN(S(=O)(=O)N(C)C)CC3)cc2)c1-c1cccc2c(CCCOc3cccc4ccccc34)c(C(=O)O)n(CCN3CCOCC3)c12 (max 10 µM)	0.0397	0.0026	-0.0317	-0.0396	0.0152	0.0361	0.0093	0.117	-0.0074	-0.0068	0.0952	-0.0002
CN(C)C/C=C/C(=O)Nc1ccc(C(=O)Nc2cccc(Nc3cc(-c4c[nH]c5ccccc45)ncn3)c2)cc1 [THZ-P1-2] (max 10 µM)	0.149	0.309	0.0529	0.137	0.124	0.117	0.474	0.14	0.573	0.127	0.351	0.292
CN1CCN(CCOc2cc(OC3CCOCC3)c3c(Nc4c(Cl)ccc5c4OCO5)ncnc3c2)CC1 [Saracatinib/AZD0530] (max 10 µM)	0.131	0.0262	0.31	0.159	0.173	0.132	0.399	0.279	0.11	0.0365	0.0722	0.322
CC(C)Nc1cc(-c2c[nH]c(C(=O)N[C@H](CO)c3cccc(Cl)c3)c2)c(Cl)cn1 [BVD523] (max 10 µM)	0.279	0.241	0.102	0.132	0.108	0.233	0.08	-0.0633	0.267	0.254	0.704	0.192
Cc1cc(Nc2ncc(Cl)c(Nc3ccccc3S(=O)(=O)C(C)C)n2)c(OC(C)C)cc1C1CCNCC1 [Ceritinib/LDK378] (max 10 µM)	0.0779	0.236	0.416	0.255	0.337	0.249	0.0423	0.261	-0.0026	0.213	0.347	0.457
NC1(C(=O)N[C@@H](CCO)c2ccc(Cl)cc2)CCN(c2nc[nH]c3nccc2-3)CC1 [AZD5363] (max 10 µM)	0.234	0.583	0.0959	0.298	0.0399	0.109	0.393	0.267	0.769	0.177	0.122	0.212
CN(C)CC[C@H](CSc1ccccc1)Nc1ccc(S(=O)(=O)NC(=O)c2ccc(N3CCN(Cc4ccccc4-c4ccc(Cl)cc4)CC3)cc2)cc1[N+](=O)[O-] [ABT-737] (max 10 µM)	0.0913	0.0008	0.304	0.0208	0.2	0.142	-0.0351	0.319	-0.0097	0.0034	0.153	0.0119
O=C1NC(=NCc2cccs2)SC1=Cc1ccc2ncccc2c1 [R0-3306] (max 10 µM)	0.0926	0.0858	0.112	0.109	0.0133	0.106	0.113	0.0686	0.0158	0.0665	0.207	0.0991
NC(=O)Nc1cc(-c2cccc(F)c2)sc1C(=O)N[C@H]1CCCNC1 [AZD7762] (max 10 µM)	0.588	0.418	0.828	0.197	0.492	0.657	0.199	0.447	0.431	0.277	-0.0013	0.597
CC(=O)c1c(C)c2cnc(Nc3ccc(N4CCN(CCOCCOCCOCCNC(=O)COc5cccc6c5C(=O)N(C5CCC(=O)NC5=O)C6=O)CC4)cn3)nc2n(C2CCCC2)c1=O (stereo not given) [BSJ-03-123] (max 10 µM)	0.286	0.658	0.31	0.423	0.16	0.293	0.387	0.156	0.34	0.265	0.708	0.306
CC(C)NC[C@@H](C(=O)N1CCN(c2ncnc3c2[C@H](C)C[C@H]3O)CC1)c1ccc(Cl)cc1 [Ipatasertib/GDC0068] (max 10 µM)	0.1	0.412	-0.0202	0.311	0.13	0.124	0.124	0.155	0.529	0.0758	0.12	0.26
Nc1ccc(-c2ccc3ncc4ccc(=O)n(-c5cccc(C(F)(F)F)c5)c4c3c2)cn1 [Torin2] (max 1 µM)	0.345	0.507	0.643	0.536	0.487	0.255	0.346	0.473	0.698	0.295	0.46	0.603
Cc1nc(NC(=O)N2CCC[C@H]2C(N)=O)sc1-c1ccnc(C(C)(C)C(F)(F)F)c1 [Alpelisib/BYL719] (max 10 µM)	0.128	0.0106	0.241	0.201	0.0922	0.0367	0.351	0.36	0.492	0.056	0.136	0.326
O=C(CCCCCCC(=O)Nc1ccccc1)NO [Vorinostat] (max 10 µM)	0.153	0.383	0.36	0.151	0.241	0.225	0.276	0.0835	0.161	0.148	0.188	0.349
O=C(c1cc(Cc2n[nH]c(=O)c3ccccc23)ccc1F)N1CCN(C(=O)C2CC2)CC1 [Olaparib/AZD2281] (max 10 µM)	0.0365	0.0527	0.0373	0.0657	0.143	0.184	0.0601	-0.0156	0.0342	0.0296	0.0908	0.0554
CNC(=O)c1cccc(-c2ccc3c(N4CCOC[C@@H]4C)nc(N4CCOC[C@@H]4C)nc3n2)c1 [AZD2014] (max 10 µM)	0.484	0.873	0.706	0.484	0.464	0.385	0.749	0.606	0.845	0.481	0.729	0.854
COc1cc(N2CCN(C)CC2)ccc1Nc1ncc2c(n1)N(C)c1ccccc1C(=O)N2CC(F)(F)F [FMF-03-146-1]	0.0104	-0.0223	0.071	0.0278	-0.0113	-0.0043	0.0601	0.0495	-0.0085	0.0317	0.0018	0.0454
CCOc1cc2ncc(C#N)c(Nc3ccc(OCc4ccccn4)c(Cl)c3)c2cc1NC(=O)/C=C/CN(C)C [Neratinib/HKI272] (max 3.162 µM)	0.24	0.0703	0.314	0.147	0.224	0.358	1.08	0.255	1.17	0.101	0.421	0.142
Cc1nc(-c2cn3c(n2)-c2ccc(-c4cnn(C(C)(C)C(N)=O)c4)cc2OCC3)n(C(C)C)n1 [Taselisib/GDC0032] (max 10 µM)	0.397	0.245	0.576	0.736	0.235	0.205	0.798	0.879	1.43	0.399	0.457	0.768
COc1ccc2c(c1)[C@]1(C[C@H]1c1ccc3c(/C=C/c4ccc(CN5C[C@@H](C)O[C@@H](C)C5)cc4)n[nH]c3c1)C(=O)N2	0.675	0.587	0.553	1.07	0.518	0.672	0.509	0.161	0.416	0.629	0.668	0.906
C=CCn1c(=O)c2cnc(Nc3ccc(N4CCN(C)CC4)cc3)nc2n1-c1cccc(C(C)(C)O)n1 [AZD1775] (max 10 µM)	0.756	0.0364	0.806	0.198	0.483	0.614	0.322	0.212	0.488	0.253	0.366	0.692
